In patent US8093218B2, “Peptide derived from vascular endothelial growth factor receptor-1 binding integrin α5β1 having proangiogenic activity” (Provincia Italiana della Congregazione dei Figli …, priority 2006, dated 2012):
“Also recorded” adds a separate entry of the source.

Legend:
HUVEC [1] = test: formation of tubules of EC in Type I collagen gel; type: cell-based, human
Description: It was tested the ability of the peptide 12 to induce the formation of tubules of EC. HUVEC cells were plated on 24 wells plates previously covered with a mixture of gel Type I collagen, in the absence or presence of 500 μg/ml peptide 12 or peptide 1. A second layer of gel Type I collagen was placed on the adherent cells. As shown, in the absence or presence of peptides, were added, in the culture medium, different concentrations of VEGF (40 or 100 nM), or 20 μg/ml of protein VEGFR-1/Fc.

[2] = tested on: HUVEC adhesion to VEGFR-1/Fc; test: inhibition by peptides of EC adhesion to VEGFR-1/Fc; type: cell-based, human; details: peptide added to HUVEC suspension before plating
Description: (§1) In order to test the ability of the twelve chosen peptides to inhibit the adhesion of the EC to VEGFR-1 mediated from the integrin α5β1, every peptide was added to one suspension of HUVEC before plated on dishes covered with VEGFR-1/Fc or fibronectin (FN). The data were indicated as percentage of adhesion, calculated to the number of cells adhered on the substrate itself in absence of peptides.

[3] = tested on: HUVEC adhesion to fibronectin (FN); test: inhibition by peptides of EC adhesion to fibronectin; type: cell-based, human; details: peptide added to HUVEC suspension before plating
Description: as §1

HUVEC [4] = test: adhesion of HUVEC on plates with covalently linked peptides; type: cell-based, human; details: HUVEC incubated 1 hour on covalently linked peptide
Description: To establish whether the four peptides, were able to inhibit the adhesion of the EC to VEGFR-1, by supporting directly the adhesion of the EC, the peptides were linked covalently to plates and the HUVEC were incubated on plates for 1 hour. The peptide 1 was used as negative control and the peptide RGD as the positive control. Unspecific adhesion was measured by absorbance in the plates covered with BSA.

rabbit corneal tissue = test: rabbit corneal neovascularization with peptide-releasing pellets; type: in vivo; details: rabbit cornea, monitored for 17 days
From the text: The FIGS. 6A and 6B show the effect on angiogenesis of the peptide 12 or Y220 compare to VEGF at different concentrations.
To address the angiogenic role, in vivo, pellets releasing peptide 12 were implanted into rabbit corneal tissue and neovascularization was monitored for 17 days.

[5] = tested on: HUVEC adhesion to peptide 12; test: adhesion of HUVEC to peptide 12 in presence of chelating agents or anti-integrin antibodies; type: cell-based, human; details: EDTA or EGTA treatment
Description: The peptide 12 or the BSA, as non-specific adhesion control, were linked on plates and the HUVEC added in the presence of chelating agents (EDTA or EGTA).
The HUVEC were pre-incubated with an antibody against the integrin α5β1 or versus the integrinic subunit α6 and left to adhere on plates covered with peptide 12 or BSA.

[6] = tested on: HUVEC migration induced from VEGFR-1/Fc; test: EC migration in Boyden chambers induced by VEGFR-1/Fc; type: cell-based, human; details: HUVEC pre-incubated with peptide
Description: (§2) In order to investigate the ability to peptide 12 to influence the migration of the EC induced from VEGFR-1/Fc, a process mediated from the integrin α5β1, the HUVEC were pre-incubated with peptide 12 and peptide 1 and placed in Boyden chambers in order to analyze the migration induced from VEGFR-1/Fc or fibronectin (FN). Data represent the average of 14 microscopic fields and are referred to as percentage of inhibition compared to the migration observed in the absence of peptides.

integrin α5β1 [7] = target: T1, integrin α5β1 (Homo sapiens, UniProt P05556+P08648); test: integrin α5β1 aggregation around peptide-coated magnetic beads (immunostaining); type: cell-based; set-up: endogenous in cells; host or cells: HUVEC; details: magnetic beads coated with peptide, immunostaining for integrin α5β1
Description: The integrins not linked are widely distributed on cellular membrane, but after the ligand binding and the activation merged in distinct structures called focal contacts and ECM contact.
It was examined whether the peptide 12 was able to induce aggregation of integrin α5β1 after the binding. EC adherent cells were incubated with magnetic beads coated with peptide 12, or peptide RGD or peptide RGE respectively as positive and negative controls, and immunostained with an antibody against integrin α5β1.

[8] = tested on: HUVEC migration induced by fibronectin (FN); test: EC migration in Boyden chambers induced by fibronectin; type: cell-based, human; details: HUVEC pre-incubated with peptide
Description: as §2

angiogenesis = details: previously published; cited from earlier work
VEGF = target: T2, VEGF (Homo sapiens, UniProt P15692); details: previously published; cited from earlier work
T2 sequence (P15692 207-320 limits assumed): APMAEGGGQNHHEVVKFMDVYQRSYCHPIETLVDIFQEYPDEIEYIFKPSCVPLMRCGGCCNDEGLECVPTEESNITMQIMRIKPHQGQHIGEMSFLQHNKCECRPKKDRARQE

integrin α5β1 [9] = target: T1, integrin α5β1; test: solid-phase binding of purified integrin α5β1 to plates covered with dII or VEGFR-1/Fc; details: anti-integrin α5β1 antibody, colorimetric, absorbance at 405 nm
Description: The direct bind of the integrin α5β1 to the domain had been determined also with binding test on solid phase. The purified integrin α5β1 was added to plates covered with dII or with VEGFR-1/Fc like positive control and the integrin bound was measured using an antibody anti-integrin α5β1 and a colorimetric test.

HUVEC [10] = test: adhesion of HUVEC on plates covered with recombinant protein; type: cell-based, human; details: plates covered with the protein; absorbance at 540 nm
Description: The endothelial cells derived from human umbilical vein (HUVEC) were used to examine ability of the domain II to support the adhesion of EC in plates covered with the recombinant protein.
The HUVEC were incubated on plates covered with VEGFR-1 FC, with the domain II (dII) recombinant, with fibronectin (FN) or bovine serum albumin (BSA). The protein VEGFR-1/Fc, and the fibronectin were used as positive controls and BSA as negative control.
The cells assayed were coloured and the absorbance was measured.

T1 sequence (P08648 42-894 limits assumed): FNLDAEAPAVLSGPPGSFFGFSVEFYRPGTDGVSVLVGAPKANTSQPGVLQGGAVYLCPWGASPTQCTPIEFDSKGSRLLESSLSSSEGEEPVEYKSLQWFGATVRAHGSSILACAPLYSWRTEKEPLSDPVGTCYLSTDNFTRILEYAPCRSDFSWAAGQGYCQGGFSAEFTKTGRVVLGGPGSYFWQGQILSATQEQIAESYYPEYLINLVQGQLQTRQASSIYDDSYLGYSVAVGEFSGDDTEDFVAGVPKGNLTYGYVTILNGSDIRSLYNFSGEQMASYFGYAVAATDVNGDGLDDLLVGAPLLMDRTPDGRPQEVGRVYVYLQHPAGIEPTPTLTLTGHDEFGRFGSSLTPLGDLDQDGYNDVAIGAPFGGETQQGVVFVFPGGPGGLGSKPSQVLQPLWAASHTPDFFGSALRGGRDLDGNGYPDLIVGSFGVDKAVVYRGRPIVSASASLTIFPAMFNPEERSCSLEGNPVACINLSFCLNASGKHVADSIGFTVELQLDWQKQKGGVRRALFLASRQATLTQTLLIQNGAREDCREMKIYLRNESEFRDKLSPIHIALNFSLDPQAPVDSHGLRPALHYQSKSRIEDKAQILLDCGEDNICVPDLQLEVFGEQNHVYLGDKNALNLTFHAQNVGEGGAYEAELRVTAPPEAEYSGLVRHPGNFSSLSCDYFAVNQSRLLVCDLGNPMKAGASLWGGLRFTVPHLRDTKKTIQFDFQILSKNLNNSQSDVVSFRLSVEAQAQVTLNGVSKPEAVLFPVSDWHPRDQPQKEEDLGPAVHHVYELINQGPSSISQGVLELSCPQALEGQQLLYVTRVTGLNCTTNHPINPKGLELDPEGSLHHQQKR
T1 sequence (P08648 895-1049 partner limits assumed): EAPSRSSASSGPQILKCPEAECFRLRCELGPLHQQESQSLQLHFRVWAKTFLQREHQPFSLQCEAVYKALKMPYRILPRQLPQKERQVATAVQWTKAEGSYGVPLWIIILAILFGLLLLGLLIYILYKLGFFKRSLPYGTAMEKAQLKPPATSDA
T1 sequence (P05556 21-798): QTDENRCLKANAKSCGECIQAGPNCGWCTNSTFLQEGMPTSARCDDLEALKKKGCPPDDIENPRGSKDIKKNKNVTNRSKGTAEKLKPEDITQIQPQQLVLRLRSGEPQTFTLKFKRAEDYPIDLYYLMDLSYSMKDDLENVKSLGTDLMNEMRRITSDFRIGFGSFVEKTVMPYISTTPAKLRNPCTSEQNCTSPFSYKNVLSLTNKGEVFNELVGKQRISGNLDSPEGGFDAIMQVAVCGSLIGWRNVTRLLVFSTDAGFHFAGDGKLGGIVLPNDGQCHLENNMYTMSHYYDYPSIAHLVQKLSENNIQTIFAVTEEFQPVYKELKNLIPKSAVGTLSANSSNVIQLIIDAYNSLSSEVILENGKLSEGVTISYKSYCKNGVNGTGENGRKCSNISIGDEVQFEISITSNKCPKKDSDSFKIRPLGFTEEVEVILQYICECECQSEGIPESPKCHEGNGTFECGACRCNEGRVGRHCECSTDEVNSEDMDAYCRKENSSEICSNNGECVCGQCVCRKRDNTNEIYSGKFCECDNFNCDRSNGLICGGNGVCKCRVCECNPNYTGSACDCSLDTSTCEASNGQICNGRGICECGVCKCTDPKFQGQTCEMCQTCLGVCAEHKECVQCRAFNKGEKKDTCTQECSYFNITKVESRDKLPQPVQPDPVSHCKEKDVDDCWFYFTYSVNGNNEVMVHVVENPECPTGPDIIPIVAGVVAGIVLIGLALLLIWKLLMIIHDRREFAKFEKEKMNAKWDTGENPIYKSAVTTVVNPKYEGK

Row | Molecule | effect on VEGF-induced tubule formation (HUVEC [1]; 500 μg/ml peptide with VEGF 40 nM) | induction of formation of tubules of EC (HUVEC [1]; 500 μg/ml peptide, collagen I matrix) | formation of vascular structures in presence of VEGFR-1/Fc (HUVEC [1]; peptide in presence of VEGFR-1/Fc (data not shown)) | inhibition of adhesion of EC to VEGFR-1/Fc [2] | inhibition of adhesion of EC to fibronectin [3] | direct support of EC adhesion by plate-linked peptide (HUVEC [4]) | corneal neoangiogenesis (rabbit corneal tissue) | dependence of EC adhesion to peptide 12 on divalent cations [5] | inhibition of EC migration induced by VEGFR-1/Fc [6] | integrin α5β1 aggregation / bead attachment on EC (integrin α5β1 [7]) | inhibition of EC migration induced by fibronectin [8] | angiogenesis inhibitor activity (angiogenesis) | binding to VEGF / inhibition of VEGF binding to its receptors (VEGF) | amount of integrin α5β1 bound to coated protein (integrin α5β1 [9]) | adhesion of HUVEC to coated protein (HUVEC [10])
1 | NYLTHRQ (listed as Homo sapiens) [peptide 12] | increased the formation of induced VEGF tubules | able to induce in vitro the formation of vascular structures | partially maintained its ability to induce the formation of vascular structures | effectively blocked; also recorded: inhibit cellular adhesion to sVEGFR-1 | partially inhibit | induced the adhesion of EC; also recorded: directly supports the adhesion of EC | strongly promoted neoangiogenesis | requires divalent cations; also recorded: sensitive to divalent cations | completely annulled the migratory response; also recorded: inhibits the induced cellular migration from VEGFR-1 | A separate colouring for integrin α5β1 was observed around the beads | no significant inhibition | – | – | – | –
2 | NITVTLKKFPL (listed as Homo sapiens) [peptide 5] | – | – | – | effectively blocked; also recorded: inhibit cellular adhesion to sVEGFR-1 | – | – | – | – | – | – | – | act as an angiogenesis inhibitor | without binding to VEGF or inhibiting VEGF binding to its receptors | – | –
3 | dII recombinant: recombinant protein corresponding to VEGFR-1 domain II (residues 129-229), produced in SF9 cells (protein, left off: small tags and cut ends, recombinant protein corresponding to VEGFR-1 domain II (residues 129-229), produced in SF9 cells) SDTGRPFVEMYSEIPEIIHMTEGRELVIPCRVTSPNITVTLKKFPLDTLIPDGKRIIWDSRKGFIISNATYKEIGLLTCEATVNGHLYKTNYLTHRQTNTI | – | – | – | – | – | – | – | – | – | – | – | – | – | a similar amount of integrin interacted | supported the adhesion of the HUVEC
